Like-named read-outs stand apart in the source and are kept apart here. Values belong to the compound of their own block, whether it stands above or below them.
Experiments:
[1] = molecular target: T1, trkA (Rattus norvegicus, UniProt P35739); experiment: inhibition of NGF-stimulated trk autophosphorylation (tyrosine phosphorylation) in PC12 cells, anti-phosphotyrosine Western blot; type: cell-based; details: for trk 100 nM (inhibition of phosphorylation) / trk 500 nM (inhibition of phosphorylation): NGF 50 ng/ml; for trk 500 nM (inhibition of phosphorylation): 500 nM compound; on trk 100 nM (inhibition of phosphorylation): key: +: Inhibited phosphorylation; -: Did not inhibit phosphorylation; on trk 500 nM (inhibition of phosphorylation): key: +: Inhibited phosphorylation; -: Did not inhibit phosphorylation
T1 construct: are rat pheochromocytoma cells that bear trkA; host or cells: PC12 rat pheochromocytoma cells
T1 sequence (P35739 33-799): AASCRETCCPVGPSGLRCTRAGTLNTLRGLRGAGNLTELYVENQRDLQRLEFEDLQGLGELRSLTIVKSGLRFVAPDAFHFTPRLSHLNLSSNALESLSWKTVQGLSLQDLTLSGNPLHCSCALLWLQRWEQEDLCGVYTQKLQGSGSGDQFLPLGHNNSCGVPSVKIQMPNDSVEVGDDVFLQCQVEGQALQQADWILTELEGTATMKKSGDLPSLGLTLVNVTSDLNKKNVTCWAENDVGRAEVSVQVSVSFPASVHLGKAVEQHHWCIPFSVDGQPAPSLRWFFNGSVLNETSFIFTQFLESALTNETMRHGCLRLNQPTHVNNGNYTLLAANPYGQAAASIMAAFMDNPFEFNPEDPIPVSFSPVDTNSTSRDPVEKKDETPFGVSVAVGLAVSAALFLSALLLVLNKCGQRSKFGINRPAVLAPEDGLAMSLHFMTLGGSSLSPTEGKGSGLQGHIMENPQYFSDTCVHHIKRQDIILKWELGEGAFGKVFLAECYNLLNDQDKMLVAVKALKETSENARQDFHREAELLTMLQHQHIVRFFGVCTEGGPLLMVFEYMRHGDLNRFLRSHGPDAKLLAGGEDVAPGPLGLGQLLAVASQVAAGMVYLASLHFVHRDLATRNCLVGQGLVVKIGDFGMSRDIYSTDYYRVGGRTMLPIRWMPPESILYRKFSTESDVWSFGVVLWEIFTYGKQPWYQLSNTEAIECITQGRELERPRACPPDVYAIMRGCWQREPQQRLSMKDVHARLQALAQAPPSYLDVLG
Experimental: Candidate compounds for the inhibition of prostate cell proliferation were selected according to their ability to inhibit the tyrosine kinase activity associated with the trks.
PC12 cells (ATCC #CRL1721) are rat pheochromocytoma cells that bear trkA and differentiate into sympathetic neurons when treated with NGF. […] Cells were incubated at 37° C. in a humidified atmosphere of 10% CO2 and 90% air. […] The cells in each culture were disrupted and cell lysates were prepared by standard techniques known to those skilled in the art. Each lysate was incubated with anti-trk antibody whereby immune complexes were formed. […] The immune complexes were collected on Protein A-Sepharose beads, separated by SDS-polyacrylamide gel electrophoresis (SDS-PAGE), and transferred to polyvinylidene difluoride (PVDF) membranes (Millipore Corp., Bedford, Mass.), using techniques well known to those skilled in the art. The membranes were incubated with anti-phosphotyrosine antibody, which binds to the tyrosine phosphorylated trks, but not to the un-phosphorylated form of trks. Proteins bound to anti-phosphotyrosine antibody were visualized with enhanced chemiluminescence (ECL, Amersham), and are shown as dark "spots" in FIG. 1.
Measurement of the autophosphorylation of trk provides a good index of trk tyrosine kinase activity, and thereby of trk stimulation.
Inhibition was indicated by the absence of a spot migrating with the trk marker shown at the left side of the figure. Partial inhibition was indicated by a spot of reduced size.

[2] = tested on: Tsu-Pr1; experiment: growth inhibition of Tsu-Pr1 prostate cancer cells (calcein fluorescence); type: cell-based; details: Homo sapiens, TSU-Pr1, 72 h, read-out: Tsu-Pr1 IC50
Experimental: (§1) Throughout the experiment the Tsu-Pr1 and Du-Pro1 cells were maintained in RPMI 1640 medium (GIBCO) containing 10% fetal bovine serum (Hyclone), 2 mM glutamine, 100 U/ml penicillin, and 100 μg/ml streptomycin. The PC-3 cells were maintained in Ham's F12K medium (Irvine Scientific) containing 10% fetal bovine serum (Hyclone), 2 mM glutamine, 100 U/ml penicillin, and 100 μg/ml streptomycin. All cell lines were maintained at 37° C. in a humidified atmosphere containing 5% CO2. The DU-145 cells were maintained in minimal essential medium (Gibco), containing 10% fetal bovine serum (Hyclone), 2 mM glutamine, and no antibiotics.
(§2) Tests for growth inhibition by the candidate compounds were conducted by the following procedure. In each well of a 96-well plate (Falcon) were placed 2,500 cells in 0.1 ml of medium. The cultures were incubated overnight after which a 0.1 ml aliquot of culture medium was added to each well. […] Other control wells received medium without any K-252a derivative compounds. Incubation was continued for three days. On day three the number of cells in each well was measured using a calcein fluorescence assay (Bozyczko-Coyne et al. J. Neurosci. Meth. 50, 205-216 (1993)).
(§3) Calcein AM (Molecular Probes, Eugene, Oreg.), an analog of the viable dye fluorescein diacetate, is taken up by cells and cleaved intracellularly to fluorescent salts that are retained by intact membranes of viable cells. This method thus provides a reliable and quantitative measurement of cell survival. Calcein AM was diluted 2× in Dulbeccos phosphate buffered saline (D-PBS) to 2× the final assay concentration (6 μM) and 100 μl was added to culture wells containing 100 μl of medium. The plates were then incubated for 1 hour at 37° C. Cells were then washed 4 times with D-PBS to remove excess calcein not taken up by cells. The plate was read using a Millipore plate reading fluorimeter (Cytofluor 2350) at emission=485 nm and excitation=538 nm. After subtraction of blank values (wells containing medium but no cells), relative fluorescent values reflect a quantitative measurement of cell survival.
(§4) The number of cells in the wells containing functional derivatives was compared to the number of cells in the control wells. The concentration which inhibited cell growth by 50% was calculated and is referred to as the "IC50 ".

[3] = tested on: Du-Pro1; experiment: growth inhibition of Du-Pro1 prostate cancer cells (calcein fluorescence); type: cell-based; details: Homo sapiens, 72 h, read-out: Du-Pro1 IC50
Experimental: as §1, §2, §3, §4

[4] = tested on: DU-145; experiment: growth inhibition of DU-145 prostate cancer cells (calcein fluorescence); type: cell-based; details: Homo sapiens, DU-145, 72 h, read-out: DU-145 C50
Experimental: as §1, §2, §3, §4

[5] = tested on: androgen independent human prostate cancer cell lines Tsu-Pr1, DuPro-1, PC-3 and DU-145; experiment: growth inhibition of prostate cancer-derived cell lines, overall (calcein fluorescence); type: cell-based; details: Table 3
Experimental: as §1, §2
(§5) Calcein AM (Molecular Probes, Eugene, Oreg.), an analog of the viable dye fluorescein diacetate, is taken up by cells and cleaved intracellularly to fluorescent salts that are retained by intact membranes of viable cells. This method thus provides a reliable and quantitative measurement of cell survival. Calcein AM was diluted 2× in Dulbeccos phosphate buffered saline (D-PBS) to 2× the final assay concentration (6 μM) and 100 μl was added to culture wells containing 100 μl of medium. The plates were then incubated for 1 hour at 37° C. Cells were then washed 4 times with D-PBS to remove excess calcein not taken up by cells. The plate was read using a Millipore plate reading fluorimeter (Cytofluor 2350) at emission=485 nm and excitation=538 nm. After subtraction of blank values (wells containing medium but no cells), relative fluorescent values reflect a quantitative measurement of cell survival. […]

[6] = tested on: Dunning R-3327 AT-2.1 prostate tumor; experiment: inhibition of growth of Dunning R-3327 AT-2.1 prostate tumor in adult male Copenhagen rats; type: in vivo, rat; details: 3 mg/kg/day s.c.
Description: The AT-2 tumor is a highly anaplastic cell line derived from the original slow-growing androgen-dependent Dunning R-3327 H rat prostate tumor (Issacs et al., Prostate 9:261-281, 1986). The AT-2 tumor model has been used to characterize other potential anti-prostatic cancer agents including linomide (Ichikawa et al., Cancer Research 52:3022-3028, 1992) and suramin (Morton et al., Prostate 17:327-336, 1990) which is undergoing evaluation in clinical trials for androgen-independentprostate cancer (Eisenberger et al., J. Natl. Can. Inst. 85: 611-621, 1993).
Experimental Protocol: Twenty-four inbred male Copenhagen rats were inoculated subcutaneously in the flank with 1×10^6 viable AT-2.1 tumor cells. All animals were allowed to develop tumors of approximately 2.7 cm^3 in size (approximately 14 days) before being randomized into three groups of 8 animals each. Group 1 received daily subcutaneous injections of vehicle alone (1 ml/kg body weight). […] All animals had their tumor sizes evaluated for a period of 16 days. Tumor volume was calculated using the formula (1×w^2)×0.5.

[7] = tested on: PC-3; experiment: growth inhibition of PC-3 prostate cancer cells (calcein fluorescence); type: cell-based; details: Homo sapiens, PC-3, 72 h; 3 days incubation; read-out: PC-3 IC50
Experimental: as §1, §2, §5

[8] = tested on: prostate glands; experiment: inhibition of prostate growth in sexually immature mice (weight of prostate glands); type: in vivo; details: for Dorsal Prostate weight / Ventral Prostate weight / Coagulating Glands weight / Seminal Vesicles weight: Table 4; for Dorsal Prostate weight: TEPBS 9.8 ± 1.6; for Ventral Prostate weight: TEPBS 11.3 ± 0.6; for Coagulating Glands weight: TEPBS 25.1 ± 1.6; for Seminal Vesicles weight: TEPBS 75.0 ± 5.0
Description: (§6) The following animal model can be used to test the efficacy of a functional derivative for treatment of a proliferative prostate condition. Sexually immature male mice of 15-20 g each (Charles River Laboratories, Raleigh, N.C.) were used in the following in vivo study. The mice were allowed at least 3 days after purchase to acclimate before being used in any experiments.
(§7) Each test group contained 12 mice. […] At the end of the 21 day dosing period the mice were sacrificed and whole body blood, dorsal prostate, ventral prostate, coagulating glands, seminal vesicles, heart, liver, stomach, lung, kidneys and testes were collected separately and weighed.

[9] = body weight and weight of peripheral organs in sexually immature mice; details: for Body Weight: Table 4, TEPBS 31.5 ± 0.8; for Heart weight / Testes weight / Lung weight / Stomach weight / Kidney weight / Liver weight: Table 5; for Heart weight: TEPBS 171 ± 8.4; for Testes weight: TEPBS 202 ± 6; for Lung weight: TEPBS 230 ± 15.9; for Stomach weight: TEPBS 294 ± 22; for Kidney weight: TEPBS 576 ± 22; for Liver weight: TEPBS 1937 ± 75
Description: as §6, §7

Structure (SMILES): COC(=O)C1(O)CC2OC1(C)n1c3ccccc3c3c4c(c5c6cc(O)ccc6n2c5c31)C(=O)NC4 (stereo not shown) [Compound I-5]
trk 100 nM (inhibition of phosphorylation) ([1]; 100 nM compound): +
IC50 [2]: 70 nM
IC50 [3]: 60 nM
IC50 [4]: 80 nM
potency in inhibiting prostate cell line growth, in words [5]: most potent compounds in inhibiting growth in all four cell lines
inhibiting growth of AT-2.1 tumors ([6]; approximately): 50-60%
Tumor volume Day 0 ([6]; vehicle 2.73 ± 0.50): 2.70 ± 1.06 cm^3
Tumor volume Day 3 ([6]; vehicle 6.66 ± 1.48): 5.64 ± 1.32 cm^3
Tumor volume Day 8 ([6]; vehicle 21.0 ± 3.0): 10.7 ± 2.9 cm^3
Tumor volume Day 13 ([6]; vehicle 37.3 ± 4.0): 19.8 ± 5.6 cm^3
Tumor volume Day 16 ([6]; vehicle 58.7 ± 5.0): 24.6 ± 6.2 cm^3

Structure (SMILES): COC(=O)C1(O)CC2OC1(C)n1c3ccccc3c3c4c(c5c6ccccc6n2c5c31)C(=O)NC4=O (stereo not shown) [Compound I-22]
trk 100 nM (inhibition of phosphorylation) ([1]; 100 nM compound): +
IC50 ([2]; 3 days incubation): 690 nM

trk 100 nM (inhibition of phosphorylation) ([1]; 100 nM compound): +
IC50 ([2]; 3 days incubation): 38 nM
IC50 ([3]; 3 days incubation): 310 nM
IC50 [7]: 690 nM
IC50 ([4]; 3 days incubation): 750 nM
Structure (SMILES): CC12OC(CC1(O)C(=O)NCCO)n1c3ccccc3c3c4c(c5c6ccccc6n2c5c31)CNC4=O (stereo not shown) [Compound I-12]
potency in inhibiting prostate cell line growth, in words [5]: most potent compounds in inhibiting growth in all four cell lines
weight of the ventral prostates and seminal vesicles, in words ([8]; 1 mg/kg): reduced the weight of the ventral prostates and seminal vesicles
weight of the dorsal prostate, in words ([8]; 1 mg/kg and 10 mg/kg): only reduced after treatment with 1 mg/kg
weight of the ventral prostates and seminal vesicles, in words ([8]; 10 mg/kg): reduced the weight of the ventral prostates and seminal vesicles
Dorsal Prostate weight ([8]; 1 mg/kg s.c. daily 21 days): 4.7 ± 0.4 mg
Ventral Prostate weight ([8]; 1 mg/kg s.c. daily 21 days): 6.2 ± 0.4 mg
Coagulating Glands weight ([8]; 1 mg/kg s.c. daily 21 days): 18.0 ± 2.4 mg
Seminal Vesicles weight ([8]; 1 mg/kg s.c. daily 21 days): 54.3 ± 1.5 mg
Dorsal Prostate weight ([8]; 10 mg/kg s.c. daily 21 days): 8.6 ± 1.1 mg
Ventral Prostate weight ([8]; 10 mg/kg s.c. daily 21 days): 8.4 ± 0.8 mg
Coagulating Glands weight ([8]; 10 mg/kg s.c. daily 21 days): 17.6 ± 1.0 mg
Seminal Vesicles weight ([8]; 10 mg/kg s.c. daily 21 days): 55.3 ± 2.2 mg
Body Weight ([9]; 1 mg/kg s.c. daily 21 days): 32.8 ± 0.4 g
Body Weight ([9]; 10 mg/kg s.c. daily 21 days): 29.5 ± 1.0 g
Heart weight ([9]; 1 mg/kg s.c. daily 21 days): 179 ± 8.78 mg
Testes weight ([9]; 1 mg/kg s.c. daily 21 days): 191 ± 12 mg
Lung weight ([9]; 1 mg/kg s.c. daily 21 days): 244 ± 15.1 mg
Stomach weight ([9]; 1 mg/kg s.c. daily 21 days): 329 ± 28 mg
Kidney weight ([9]; 1 mg/kg s.c. daily 21 days): 591 ± 16 mg
Liver weight ([9]; 1 mg/kg s.c. daily 21 days): 2120 ± 54 mg
Heart weight ([9]; 10 mg/kg s.c. daily 21 days): 152 ± 9.60 mg
Testes weight ([9]; 10 mg/kg s.c. daily 21 days): 187 ± 5 mg
Lung weight ([9]; 10 mg/kg s.c. daily 21 days): 253 ± 20.9 mg
Stomach weight ([9]; 10 mg/kg s.c. daily 21 days): 270 ± 19 mg
Kidney weight ([9]; 10 mg/kg s.c. daily 21 days): 552 ± 29 mg
Liver weight ([9]; 10 mg/kg s.c. daily 21 days): 1886 ± 84 mg

trk 100 nM (inhibition of phosphorylation) ([1]; 100 nM compound): -
trk 500 nM (inhibition of phosphorylation) [1]: +
IC50 ([2]; 3 days incubation): 540 nM
Structure (SMILES): C[S+]([O-])CC1(O)CC2OC1(C)n1c3ccccc3c3c4c(c5c6ccccc6n2c5c31)C(=O)NC4 (stereo not shown) [Compound I-8]

trk 100 nM (inhibition of phosphorylation) ([1]; 100 nM compound): -
trk 500 nM (inhibition of phosphorylation) [1]: +
IC50 ([2]; 3 days incubation): 5700 nM
Structure (SMILES): CC12OC(CC1(O)CSC1O[C@H](CO)[C@@H](O)[C@H](O)[C@H]1O)n1c3ccccc3c3c4c(c5c6ccccc6n2c5c31)CNC4=O (stereo partly shown) [Compound I-20]
phosphorylation response (FIG. 1, spot) ([1]; 100 nM compound, NGF, Western blot FIG. 1): somewhat diminished (a smaller spot was seen)

trk 100 nM (inhibition of phosphorylation) ([1]; 100 nM compound): +
IC50 ([2]; 3 days incubation): 210 nM
Structure (SMILES): CN(C)CC1(O)CC2OC1(C)n1c3ccccc3c3c4c(c5c6ccccc6n2c5c31)C(=O)NC4 (stereo not shown) [Compound I-16]

trk 100 nM (inhibition of phosphorylation) ([1]; 100 nM compound): +
IC50 ([2]; 3 days incubation): 510 nM
Structure (SMILES): CN1CC2(CC3OC2(C)n2c4ccccc4c4c5c(c6c7ccccc7n3c6c42)C(=O)NC5)OC1=O (stereo not shown) [Compound I-15]

trk 100 nM (inhibition of phosphorylation) ([1]; 100 nM compound): +
trk 500 nM (inhibition of phosphorylation) [1]: +
IC50 ([2]; 3 days incubation): 90 nM
Structure (SMILES): CC12OC(CC1(O)CO)n1c3ccc(Br)cc3c3c4c(c5c6cc(Br)ccc6n2c5c31)CNC4=O (stereo not shown) [Compound I-42]
